Test results from patent US20240156790A1, “COMPOUNDS, COMPOSITIONS, AND METHODS FOR MODULATING FERROPTOSIS AND TREATING EXCITOTOXIC DISORDERS” (THE TRUSTEES OF COLUMBIA UNIVERSITY IN THE CITY OF NEW YORK, priority 2018, published 2024).
Entries after “also recorded” stand apart in the source; their conditions may differ. Where two headings read alike, the source gives them in different places.

Columns and labels:
[1] = test system: N27 rat dopaminergic cells; assay: Suppression of ferroptosis induced by RSL3 in N27 cells (CellTiter-Glo viability); type: cell-based; details: for IC50: Rattus norvegicus, read-out: IC50; for ability to suppress ferroptosis, in words: RSL3 20 nM, 24 hours of incubation
HT-1080 cells = assay: Rescue activity of Fer-1 analogs: inhibition of erastin-, IKE- or RSL3-induced death (Alamar Blue viability); type: cell-based; details: Homo sapiens
Procedure: HT-1080 cells are cultured in DMEM containing 10% fetal bovine serum, 1% supplemented non-essential amino acids and 1% pen/strep mixture (Gibco) and maintained in a humidified environment at 37° C. with 5% CO2 in a tissue culture incubator. 1,000 HT-1080 cells are seeded per well in duplicate 384-well plates (Corning) using a BioMek FX liquid handling robot (Beckman Coulter). The next day, the medium is replaced with 36 μL of medium containing 10 μM erastin with 4 μL of medium containing a dilution series (previously prepared) of DMSO, Fer-1 (positive control) or Fer-1 analogs. […] Cells are incubated a further 6 hours and then the Alamar Blue fluorescence intensity recorded using a Victor 3 platereader (PerkinElmer)(ex/em 530/590). All experiments are performed at least twice and the background (no cells)-subtracted Alamar Blue values for each combination are averaged between replicates. The same procedure was repeated by replacing erastin (10 μM) with IKE (3 μM) or RSL3 (0.2 μM).

[2] = N27, 24 h, Table 13, 20 nM RSL3, treated for 24 hours^d
[3] = N27, 24 h, Table 3, ^d 24 hr treatment, 1,000 cells/well seeded
[4] = HT-1080, ^a 50% viability, HT-1080 cells treated with 10 μM erastin
[5] = HT-1080, ^b 50% viability, HT-1080 treated with 3 μM IKE
[6] = HT-1080, ^c 50% viability, HT-1080 treated with 0.2 μM RSL3
[7] = N27, 48 h, Table 13, 20 nM RSL3, treated for 48 hours^e

Row | Compound | IC50 [1, 2] [nM] | EC50 (HT-1080 cells; [4]) [nM] | EC50 (HT-1080 cells; [5]) [nM] | EC50 (HT-1080 cells; [6]) [nM] | other results
1 | CCC(CC)Nc1cnc(NC2CCCCC2)c(-c2nc(C)no2)c1 [TH-4-53-1, N^2-cyclohexyl-3-(3-methyl-1,2,4-oxadiazol-5-yl)-N^5-(pentan-3-yl)pyridine-2,5-diamine] | 32.7 |  |  |  | 
2 | Cc1noc(-c2cnc(NC3CCCC3)c(NC3CCCCC3)c2)n1 [TH-4-66, N^3-cyclohexyl-N^2-cyclopentyl-5-(3-methyl-1,2,4-oxadiazol-5-yl)pyridine-2,3-diamine] | 3.1 |  |  |  | potency relative to fer-1, in words ([1]; 20 nM RSL3): more potent than fer-1; IC50 [1, 3]: 3.1 nM
3 | CCC(CC)Nc1cc(-c2nc(C)no2)ccc1NC1CCCCC1 [TH-1-45-3, N1-cyclohexyl-4-(3-methyl-1,2,4-oxadiazol-5-yl)-N2-(pentan-3-yl)benzene-1,2-diamine] |  | 37.8 | 26.9 | 6.6 | 
4 | Cc1noc(-c2ccc(NC3CCCCC3)c(NCc3ccccc3)c2)n1 [TH-1-53-2] |  | 44.5 | 40.2 | 9.4 | 
5 | Cc1noc(-c2cnc(NC3CCCCC3)c(NC3CCC3)c2)n1 [TH-4-55-1, N^3-cyclobutyl-N^2-cyclohexyl-5-(3-methyl-1,2,4-oxadiazol-5-yl)pyridine-2,3-diamine] | 2.2 |  |  |  | potency relative to fer-1, in words ([1]; 20 nM RSL3): more potent than fer-1; IC50 [1, 3]: 2.2 nM
6 | CC(C)(C)OC(=O)c1cnc(NC2CCCCC2)c(N)c1 [YZ1113, tert-butyl 5-amino-6-(cyclohexylamino)nicotinate] |  | 338 | 312 | 156 | 
7 | CCN(CC)c1ncc(-c2nc(C)no2)cc1[N+](=O)[O-] [TH-4-46-2, N,N-diethyl-5-(3-methyl-1,2,4-oxadiazol-5-yl)-3-nitropyridin-2-amine] |  |  |  |  | ability to suppress ferroptosis, in words [1]: unable to suppress ferroptosis
8 | Cc1noc(-c2cc(N(C(C)C)C(C)C)cnc2NC2CCCCC2)n1 [TH-3-86-R2, N^2-cyclohexyl-N^5,N^5-diisopropyl-3-(3-methyl-1,2,4-oxadiazol-5-yl)pyridine-2,5-diamine] |  |  |  |  | IC50 [1, 7]: 1040 nM; IC50 ([1]; N27, text, 20 nM RSL3): 1000 nM
9 | COc1ccc(NC2CCCCC2)c(NC(C)C)n1 [TH-3-95-1-r1, N3-cyclohexyl-N2-isopropyl-6-methoxypyridine-2,3-diamine] | 30.5 |  |  |  | IC50 [1, 7]: 22.4 nM
10 | Cc1noc(-c2cc(NC3CCCC3)cnc2NC2CCCCC2)n1 [TH-4-53-2, N^2-cyclohexyl-N^5-cyclopentyl-3-(3-methyl-1,2,4-oxadiazol-5-yl)pyridine-2,5-diamine] | 1.8 |  |  |  | potency relative to fer-1, in words ([1]; 20 nM RSL3): more potent than fer-1; also recorded: the most potent of the analogs tested
11 | COc1ccc(NC(C)C)c(NC(C)C)n1 [TH-3-95-2-R1, N2,N3-diisopropyl-6-methoxypyridine-2,3-diamine] | 35.7 |  |  |  | IC50 [1, 7]: 0.22 nM
12 | CCOC(=O)c1cnc(NC2CCCCC2)c(N)c1 [YZ1108, ethyl 5-amino-6-(cyclohexylamino)nicotinate] |  | 315 | 639 | 1040 | 
13 | CCOC(=O)c1cnc(NC2CCCCC2)c(NCc2ccccc2)c1 [YZ1109, ethyl 5-(benzylamino)-6-(cyclohexylamino)nicotinate] |  | 317 | 166 | 115 | 
14 | Cc1noc(-c2cnc(NC3CCCCC3)c([N+](=O)[O-])c2)n1 [TH-4-50-2, N-cyclohexyl-5-(3-methyl-1,2,4-oxadiazol-5-yl)-3-nitropyridin-2-amine] |  |  |  |  | ability to suppress ferroptosis, in words [1]: unable to suppress ferroptosis
15 | CCC(CC)Nc1cc(-c2nc(C)no2)cnc1NC1CCCC1 [TH-4-68, N^2-cyclopentyl-5-(3-methyl-1,2,4-oxadiazol-5-yl)-N^3-(pentan-3-yl)pyridine-2,3-diamine] | 4 |  |  |  | IC50 [1, 3]: 4 nM
16 | C=C/C(=C\C(F)=C\COC(C)(C)C)NC12CC3CC(CC(C3)C1)C2 [CFI-A78] |  |  | 26 | 18 | 
17 | COc1ccc(N)c(NC(C)C)n1 [TH-3-83-2, N2-isopropyl-6-methoxypyridine-2,3-diamine] | 19.5 |  |  |  | IC50 [1, 7]: 33.6 nM
18 | CC(C)(C)OC(=O)c1cnc(NC2CCCCC2)c(NC2CCCCC2)c1 [CFI-101] |  | 354 | 171 | 163 | 
19 | CC(C)(C)OC(=O)c1cnc(NC23CC4CC(CC(C4)C2)C3)c(N)c1 [YZ1117, tert-butyl 6-(((3s,5s,7s)-adamantan-1-yl)amino)-5-aminonicotinate] |  | 85 | 68.4 | 39.1 | 
20 | CC(C)(C)OC(=O)c1cnc(NC23CC4CC(CC(C4)C2)C3)c(NC2CCCCC2)c1 [YZ1118, tert-butyl 6-(((3s,5s,7s)-adamantan-1-yl)amino)-5-(cyclohexylamino)nicotinate] |  |  | 40.1 | 37.3 | 
21 | Cc1noc(-c2cnc(NC3CCCCC3)c(NC3CCCC3)c2)n1 [TH-4-16-1, N^2-cyclohexyl-N^3-cyclopentyl-5-(3-methyl-1,2,4-oxadiazol-5-yl)pyridine-2,3-diamine] | 5.1 |  |  |  | IC50 [1, 3]: 5.1 nM; IC50 ([1]; N27, 48 h, Table 3, ^e 48 hr treatment, 1,000 cells/well seeded): 8.2 nM; IC50 [1, 7]: 8.2 nM
22 | Cc1noc(-c2cnc(NC3CCCC3)c(NC3CCC3)c2)n1 [TH-4-62, N^3-cyclobutyl-N^2-cyclopentyl-5-(3-methyl-1,2,4-oxadiazol-5-yl)pyridine-2,3-diamine] | 6.9 |  |  |  | IC50 [1, 3]: 6.9 nM
23 | Cc1noc(-c2ccc(NC3CCCCC3)c(NC(C)C)c2)n1 [TH-1-45-2, N1-cyclohexyl-N2-isopropyl-4-(3-methyl-1,2,4-oxadiazol-5-yl)benzene-1,2-diamine] |  | 22.3 | 16.2 | 4.2 | 
24 | Cc1noc(-c2ccc(NC3CCCCC3)c(NC3CCCC3)c2)n1 [TH-1-45-1, N1-cyclohexyl-N2-cyclopentyl-4-(3-methyl-1,2,4-oxadiazol-5-yl)benzene-1,2-diamine] |  | 33.8 | 17.3 | 5.1 | 
25 | Cc1noc(-c2ccc(NC3CCCCC3)c(NCc3ccncc3)c2)n1 [TH-1-53-3, N1-cyclohexyl-4-(3-methyl-1,2,4-oxadiazol-5-yl)-N2-(pyridin-4-ylmethyl)benzene-1,2-diamine] |  | 63.8 | 63 | 31.5 | 
26 | Cc1noc(-c2cnc(NC3CCCC3)c([N+](=O)[O-])c2)n1 [TH-4-58-2, N-cyclopentyl-5-(3-methyl-1,2,4-oxadiazol-5-yl)-3-nitropyridin-2-amine] |  |  |  |  | ability to suppress ferroptosis, in words [1]: unable to suppress ferroptosis
